target: T1, CGRP receptor (SK-N-MC cell membranes) (Homo sapiens, UniProt O60894+Q16602); assay: CGRP Binding Assay ([125I]-CGRP radioligand binding, SK-N-MC homogenate); details: displacement of [125I]-CGRP, SK-N-MC homogenate; read-out: CGRP binding IC50
T1 construct: endogenous in cells; host or cells: SK-N-MC cells (membrane homogenate)
Method: Tissue Culture. SK-N-MC cells were grown at 37° C. in 5% CO2 as a monolayer in medium consisting of MEM with Earle's salts and L-glutamine (Gibco) supplemented with 10% fetal bovine serum (Gibco).
Cell Pellets. […] The cells were transferred from plates to polypropylene tubes (16×100 mm) and homogenized using a polytron. Homogenates were centrifuged at 32,000×g for 30 min. The pellets were resuspended in cold hypotonic lysis buffer with 0.1% mammalian protease inhibitor cocktail (Sigma) and assayed for protein concentration. The SK-N-MC homogenate was then aliquoted and stored at −80° C. until needed.
Radioligand Binding Assay. The compounds of invention were solubilized and carried through serial dilutions using 100% DMSO. Aliquots from the compound serial dilutions were further diluted 25 fold into assay buffer (50 mM Tris-Cl pH 7.5, 5 mM MgCl2, 0.005% Triton X-100) and transferred (volume 50 μl) into 96 well assay plates. […] SK-N-MC pellets were thawed, diluted in assay buffer with fresh 0.1% mammalian protease inhibitor cocktail (Sigma), and homogenized again. SK-N-MC homogenate (5 μg/well) was added in a volume of 100 μl. The assay plates were then incubated at room temperature for 2 h. Assays were stopped by addition of excess cold wash buffer (20 mM Tris-Cl pH 7.5, 0.1% BSA) immediately followed by filtration over glass fiber filters (Whatman GF/B) previously soaked in 0.5% PEI. Non-specific binding was defined with 1 μM beta-CGRP. Protein bound radioactivity was determined using a gamma or scintillation counter.

T1 sequence (Q16602 23-461): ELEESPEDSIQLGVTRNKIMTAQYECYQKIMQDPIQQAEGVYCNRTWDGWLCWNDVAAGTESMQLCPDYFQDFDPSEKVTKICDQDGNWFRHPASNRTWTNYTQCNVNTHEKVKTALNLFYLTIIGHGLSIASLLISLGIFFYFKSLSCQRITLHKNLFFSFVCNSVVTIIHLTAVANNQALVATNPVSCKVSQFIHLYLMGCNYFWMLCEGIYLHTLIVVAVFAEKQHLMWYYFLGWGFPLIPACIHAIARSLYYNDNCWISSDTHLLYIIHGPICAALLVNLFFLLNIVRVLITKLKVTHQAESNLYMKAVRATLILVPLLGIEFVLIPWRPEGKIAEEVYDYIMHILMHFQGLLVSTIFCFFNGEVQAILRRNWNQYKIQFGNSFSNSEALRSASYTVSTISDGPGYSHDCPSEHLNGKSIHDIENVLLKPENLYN
T1 sequence (O60894 27-148): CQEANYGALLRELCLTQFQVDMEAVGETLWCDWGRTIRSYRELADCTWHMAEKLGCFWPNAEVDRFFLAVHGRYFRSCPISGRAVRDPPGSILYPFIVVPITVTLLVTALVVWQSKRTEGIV

Structure (SMILES)	IC50
Cc1cc(CC(NC(=O)N2CCC(N3Cc4ccccc4NC3=O)CC2)C(=O)OC2CCCCC2)cc2cn[nH]c12 (stereo not shown) [Example 41a, 3-(7-Methyl-1H-indazol-5-yl)-2-{[4-(2-oxo-1,4-dihydro-2H-quinazolin-3-yl)-piperidine-1-carbonyl]-amino}-propionic acid cyclohexyl ester]	10 to 100 nM
O=C(Nc1ccc(Cl)cc1C(F)(F)F)N[C@@H](CC(=O)N1CCC(N2Cc3ccccc3NC2=O)CC1)C(=O)N1CCC(N2CCCCC2)CC1 [Example 188]	100 to 1000 nM
O=C(Cc1ccccc1)N[C@@H](CC(=O)N1CCC(N2Cc3ccccc3NC2=O)CC1)C(=O)N1CCC(N2CCCCC2)CC1 [Example 106]	100 to 1000 nM
O=C(C[C@H](Nc1ccc2[nH]ncc2c1)C(=O)N1CCC(N2CCCCC2)CC1)N1CCC(N2Cc3ccccc3NC2=O)CC1 (racemic) [Example 201, (±)-1-[1,4′]Bipiperidinyl-1′-yl-2-(1H-indazol-5-ylamino)-4-[4-(2-oxo-1,4-dihydro-2H-quinazolin-3-yl)-piperidin-1-yl]-butane-1,4-dione]	100 to 1000 nM
COC(=O)[C@H](Cc1ccccc1)NC(=O)N[C@@H](CC(=O)N1CCC(N2Cc3ccccc3NC2=O)CC1)C(=O)N1CCC(N2CCCCC2)CC1 [Example 166]	100 to 1000 nM
O=C(N[C@@H](CC(=O)N1CCC(N2Cc3ccccc3NC2=O)CC1)C(=O)N1CCC(N2CCCCC2)CC1)Oc1ccc(Br)cc1 [Example 133]	100 to 1000 nM
O=C(N[C@H](Cc1ccc2nn[nH]c2c1)C(=O)N1CCC(N2CCCCC2)CC1)N1CCC(N2Cc3ccccc3NC2=O)CC1 [Example 49, (R)-4-(2-Oxo-1,4-dihydro-2H-quinazolin-3-yl)-piperidine-1-carboxylic acid[1-(1H-benzotriazol-5-ylmethyl)-2-[1,4′]bipiperidinyl-1′-yl-2-oxo-ethyl]-amide]	< 10 nM
Cc1ccc(NC(=O)N[C@@H](CC(=O)N2CCC(N3Cc4ccccc4NC3=O)CC2)C(=O)N2CCC(N3CCCCC3)CC2)cc1Cl [Example 186]	100 to 1000 nM
O=C(Nc1cc(Cl)cc(Cl)c1)N[C@@H](CC(=O)N1CCC(N2Cc3ccccc3NC2=O)CC1)C(=O)N1CCC(N2CCCCC2)CC1 [Example 159]	10 to 100 nM
COc1cc(NC(=O)N[C@@H](CC(=O)N2CCC(N3Cc4ccccc4NC3=O)CC2)C(=O)N2CCC(N3CCCCC3)CC2)cc(OC)c1 [Example 165]	100 to 1000 nM
O=C(N[C@@H](CC(=O)N1CCC(N2Cc3ccccc3NC2=O)CC1)C(=O)N1CCC(N2CCCCC2)CC1)Oc1ccccc1 [Example 130]	100 to 1000 nM
O=C(NCc1ccccc1)N[C@@H](CC(=O)N1CCC(N2Cc3ccccc3NC2=O)CC1)C(=O)N1CCC(N2CCCCC2)CC1 [Example 145]	100 to 1000 nM
COc1ccc(NC(=O)N[C@@H](CC(=O)N2CCC(N3Cc4ccccc4NC3=O)CC2)C(=O)N2CCC(N3CCCCC3)CC2)c(OC)c1 [Example 155]	100 to 1000 nM
Cc1cccc(CN[C@@H](CC(=O)N2CCC(N3Cc4ccccc4NC3=O)CC2)C(=O)N2CCC(N3CCCCC3)CC2)c1 [Example 95, (L)-1-[1,4′]Bipiperidinyl-1′-yl-2-((3′-methyl-phenyll)-methyl-amino)-4-[4-(2-oxo-1,4-dihydro-2H-quinazolin-3-yl)-piperidin-1-yl]-butane-1,4-dione]	100 to 1000 nM
O=C(Nc1ccc(F)cc1)N[C@@H](CC(=O)N1CCC(N2Cc3ccccc3NC2=O)CC1)C(=O)N1CCC(N2CCCCC2)CC1 [Example 180]	100 to 1000 nM
COc1ccc(CC(=O)N[C@@H](CC(=O)N2CCC(N3Cc4ccccc4NC3=O)CC2)C(=O)N2CCC(N3CCCCC3)CC2)cc1OC [Example 109]	100 to 1000 nM
O=C(C[C@H](NC(=O)n1c2ccccc2c2ccccc21)C(=O)N1CCC(N2CCCCC2)CC1)N1CCC(N2Cc3ccccc3NC2=O)CC1 [Example 115]	100 to 1000 nM

Structure (SMILES)	IC50
O=C(NC(Cc1ccc2[nH]ncc2c1)C(=O)N1CCN(Cc2ccc[nH]2)CC1)N1CCC(N2Cc3ccccc3NC2=O)CC1 (stereo not shown) [Example 40g]	> 1000 nM
Cc1ccc(NC(=O)N[C@@H](CC(=O)N2CCC(N3Cc4ccccc4NC3=O)CC2)C(=O)N2CCC(N3CCCCC3)CC2)c(C)c1 [Example 185]	100 to 1000 nM
CCCN1CCN(C(=O)C(Cc2ccc3[nH]ncc3c2)NC(=O)N2CCC(N3Cc4ccccc4NC3=O)CC2)CC1 (stereo not shown) [Example 40d]	100 to 1000 nM
CCC(CN1CCN(C(=O)C(Cc2ccc3[nH]ncc3c2)NC(=O)N2CCC(N3Cc4ccccc4NC3=O)CC2)CC1)C(C)C (stereo not shown) [Example 40i]	10 to 100 nM
O=C(NCCc1cccs1)N[C@@H](CC(=O)N1CCC(N2Cc3ccccc3NC2=O)CC1)C(=O)N1CCC(N2CCCCC2)CC1 [Example 169]	100 to 1000 nM
O=C(N[C@@H](CC(=O)N1CCC(N2Cc3ccccc3NC2=O)CC1)C(=O)N1CCC(N2CCCCC2)CC1)c1cc(F)cc(F)c1 [Example 122]	100 to 1000 nM
COC(=O)C(CC(=O)N1CCC2(CC1)OC(=O)Nc1ccccc12)Cc1cc(C)c2[nH]ncc2c1 (racemic) [Example 66, (±)-2-(7-Methyl-1H-indazol-5-ylmethyl)-4-oxo-4-[1′,2′-dihydro-2′-oxospiro-[4H-3′,1-benzoxazine-4,4′-piperidinyl]-butyric acid methyl ester]	100 to 1000 nM
O=C(N[C@@H](CC(=O)N1CCC(N2Cc3ccccc3NC2=O)CC1)C(=O)N1CCC(N2CCCCC2)CC1)c1ccc(F)c(F)c1 [Example 102]	100 to 1000 nM
COC(=O)C(CN1Cc2cn[nH]c2C(C)(C)C1)NC(=O)N1CCC(N2Cc3ccccc3NC2=O)CC1 (racemic) [Example 55, (±)-3-(7,7-Dimethyl-1,4,6,7-tetrahydro-pyrazolo[4,3-c]pyridin-5-yl)-2-{[4-(2-oxo-1,4-dihydro-2H-quinazolin-3-yl)-piperidine-1-carbonyl]-amino}-propionic acid methyl ester]	100 to 1000 nM
CCCNC(=O)N[C@@H](CC(=O)N1CCC(N2Cc3ccccc3NC2=O)CC1)C(=O)N1CCC(N2CCCCC2)CC1 [Example 183]	100 to 1000 nM
Cc1cc(Br)ccc1NC(=O)N[C@@H](CC(=O)N1CCC(N2Cc3ccccc3NC2=O)CC1)C(=O)N1CCC(N2CCCCC2)CC1 [Example 194]	100 to 1000 nM
O=C(Nc1ccccc1Oc1ccccc1)N[C@@H](CC(=O)N1CCC(N2Cc3ccccc3NC2=O)CC1)C(=O)N1CCC(N2CCCCC2)CC1 [Example 136]	100 to 1000 nM
O=C(Cc1cccs1)N[C@@H](CC(=O)N1CCC(N2Cc3ccccc3NC2=O)CC1)C(=O)N1CCC(N2CCCCC2)CC1 [Example 117]	100 to 1000 nM
O=C(Nc1cc(Cl)nc(Cl)c1)N[C@@H](CC(=O)N1CCC(N2Cc3ccccc3NC2=O)CC1)C(=O)N1CCC(N2CCCCC2)CC1 [Example 164]	100 to 1000 nM
Cc1ccc(NC(=O)N[C@@H](CC(=O)N2CCC(N3Cc4ccccc4NC3=O)CC2)C(=O)N2CCC(N3CCCCC3)CC2)cc1C [Example 158]	10 to 100 nM
O=C(N[C@@H](CC(=O)N1CCC(N2Cc3ccccc3NC2=O)CC1)C(=O)N1CCC(N2CCCCC2)CC1)Oc1ccc(F)cc1 [Example 131]	100 to 1000 nM
COc1ccccc1NC(=O)N[C@@H](CC(=O)N1CCC(N2Cc3ccccc3NC2=O)CC1)C(=O)N1CCC(N2CCCCC2)CC1 [Example 149]	10 to 100 nM

Source: patent publication US7842808B2, “Anti-migraine spirocycles” (Bristol-Myers Squibb Company, priority 2002, dated 2010)
